Experimental data as given in publication PMC11501026, “L-Arginine and asymmetric dimethylarginine (ADMA) transport across the mouse blood-brain and blood-CSF barriers: Evidence of saturable transport at both interfaces and CNS to blood efflux” (PLOS ONE, 2024).
Where “and” joins values, the source holds several entries; their conditions need not be identical. Equal values may be shown once. Read-outs that look alike come from different tables or passages of the source.

Key:
Assay type in all cases: in vivo, mouse
[1] = capillary depletion analysis after in situ brain perfusion; set-up: [3H] ADMA and [14C] Sucrose uptake, homogenate / Difference (ADMA minus Sucrose), homogenate / [3H] ADMA and [14C] Sucrose uptake, supernatant / Difference (ADMA minus Sucrose), supernatant / uptake, homogenate / uptake, supernatant: unit not given here; conditions: for Kp at 30 min: other: in situ brain perfusion with artificial plasma
Description: The microvasculature within a sample of brain tissue can be separated from the brain parenchyma using capillary depletion analysis. Following perfusion, the remaining brain tissue after microdissection of the regions described above (typically 200–300 mg) underwent capillary depletion following a method modified for mouse. […]

[2] = self-inhibition, in situ perfusion: [^3H]-arginine with 100 μM unlabelled L-arginine; conditions: male, Balb/c, mouse, other: in situ brain perfusion, with 100 µM unlabelled L-arginine, +100uM Un-labelled arginine, 10 mins, Balb/c ♂, 5ml/min
Description: (§1) Self-inhibition experiments were also performed. […] Cross-competition experiments were also performed.
(§2) The percentage change in the RTissue uptake values achieved in the absence or presence of an unlabelled inhibitor can be calculated by means of Eq 4.
(§3) %change=RTissue−RInhibition/RTissue×100 Eq 4
(§4) We define RInhibition as the RTissue uptake in the presence of an inhibitor in the artificial plasma.
(§5) A decrease in the uptake of radiolabelled solute in the presence of unlabelled inhibitor is indicative of a saturable influx transport system. Conversely, an increase in the uptake of radiolabelled solute in the presence of unlabelled inhibitor is indicative of a saturable efflux transport system.

[3] = tested on: [^3H]-arginine transport across the blood-brain and blood-CSF barriers; assay: as above; conditions: +100uM Un-labelled arginine, 10 mins, Balb/c ♂, 5ml/min; single mouse
Description: as §1, §2, §3, §4, §5

[4] = cross-inhibition, in situ perfusion: [^3H]-arginine with 0.5–500 μM unlabelled ADMA; conditions: male, mouse, 10 mins, Balb/c ♂, 5ml/min
Description: as §1, §2, §3, §4, §5
Concentrations of ADMA were specifically selected to mimic plasma concentrations under normal conditions (0.5 μM), pathophysiological conditions (3.0 μM), and then supraphysiological concentrations (10, 100 and 500 μM).

OC[C@H]1O[C@@](CO)(O[C@H]2O[C@H](CO)[C@@H](O)[C@H](O)[C@H]2O)[C@@H](O)[C@@H]1O [[^14C]-sucrose, reference compound]
[3H] ADMA and [14C] Sucrose uptake, supernatant ([1]; 2.5 mins, Balb/c ♂, 5ml/min, individual mouse): 0.005063
uptake, pellet ([1]; [3H] ADMA + [14C] Sucrose, 30 mins, Balb/c ♂, 5ml/min, individual mice): 0.004118 and 0.004644 and 0.005073
Kp at 20 min, 62.5 nM ([1]; male, BALB/c, mouse, capillary depletion pellet (endothelial cell-enriched), [3H] ADMA and [14C] Sucrose uptake, pellet, 20 mins, 5ml/min, mean): 0.00274
Kp at 30 min ([1]; male, BALB/c, mouse, capillary depletion pellet (endothelial cell-enriched), pellet: [14C] Sucrose, 30 mins, Balb/c ♂, 5ml/min, single mouse): 0.00943
Kp at […] ([1]; male, BALB/c, mouse, capillary depletion supernatant (brain parenchyma), [3H] ADMA and [14C] Sucrose uptake, supernatant, 2.5 mins, 5ml/min, mean): 0.0098
Kp at […] ([1]; male, BALB/c, mouse, endothelial cell-enriched pellet (capillary depletion), [3H] ADMA and [14C] Sucrose uptake, pellet, 2.5 mins, 5ml/min, mean): 0.00237
Kp at 30 min, 62.5 nM ([1]; male, BALB/c, mouse, endothelial cell-enriched pellet (capillary depletion), other: in situ brain perfusion, [3H] ADMA + [14C] Sucrose, 30 mins, Balb/c ♂, 5ml/min, individual mice, read-out: uptake, pellet): 0.00308
Kp at 30 min, 62.5 nM ([1]; male, BALB/c, mouse, endothelial cell-enriched pellet (capillary depletion), other: in situ brain perfusion, [3H] ADMA + [14C] Sucrose, 30 mins, Balb/c ♂, 5ml/min, mean, read-out: uptake, pellet): 0.00455
Kp at […] ([1]; male, BALB/c, mouse, endothelial cell-enriched pellet (capillary depletion), pellet, 2.5 mins, uncorrected, given as fraction, read-out: tissue or CSF to plasma ratio (mean)): 0.00218
Kp at 10 min ([1]; male, BALB/c, mouse, endothelial cell-enriched pellet (capillary depletion), pellet, 10 mins, uncorrected, given as fraction, read-out: tissue or CSF to plasma ratio (mean)): 0.00461
Kp at 30 min ([1]; male, BALB/c, mouse, whole-brain homogenate (capillary depletion), homogenate: [14C] Sucrose, 30 mins, Balb/c ♂, 5ml/min, mean): 0.0653
Kp at 30 min, 62.5 nM ([1]; male, BALB/c, mouse, whole-brain homogenate (capillary depletion), other: in situ brain perfusion, [3H] ADMA + [14C] Sucrose, 30 mins, Balb/c ♂, 5ml/min, mean, read-out: uptake, homogenate): 0.0336
Kp at 10 min, 62.5 nM ([1]; male, BALB/c, mouse, whole-brain homogenate (capillary depletion), other: in situ brain perfusion, [3H] ADMA and [14C] Sucrose uptake, homogenate, CONTROL, 10 mins, Balb/c ♂, 5ml/min, mean): 0.0971
Kp at 10 min ([1]; male, Balb/c, mouse, endothelial cell-enriched pellet after capillary depletion, other: in situ brain perfusion, with unlabelled ADMA 3 µM, Arginine / Sucrose uptake, pellet, mean, [3H] Arginine + [14C] Sucrose + 3 uM ADMA, 10 mins, Balb/c ♂, 5ml/min, mean): 0.00326
Kp at 10 min ([1]; male, Balb/c, mouse, endothelial cell-enriched pellet after capillary depletion, other: in situ brain perfusion, with unlabelled ADMA 10 µM, Arginine / Sucrose uptake, pellet, mean, [3H] Arginine + [14C] Sucrose + 10 uM ADMA, 10 mins, Balb/c ♂, 5ml/min, mean): 0.00425
Kp at 10 min ([1]; male, Balb/c, mouse, endothelial cell-enriched pellet, other: in situ brain perfusion, with unlabelled ADMA 100 µM, Arginine / Sucrose uptake, pellet, mean, [3H] Arginine + [14C] Sucrose + 100µM un-labelled ADMA, 10 mins, Balb/c ♂, 5ml/min, mean): 0.00383
Kp at 10 min ([1]; male, Balb/c, mouse, supernatant (brain parenchyma) after capillary depletion, other: in situ brain perfusion, with unlabelled ADMA 3 µM, Arginine / Sucrose uptake, supernatant, mean, [3H] Arginine + [14C] Sucrose + 3 uM ADMA, 10 mins, Balb/c ♂, 5ml/min, mean): 0.0159
Kp at 10 min ([1]; male, Balb/c, mouse, supernatant (brain parenchyma), other: in situ brain perfusion, with unlabelled ADMA 100 µM, Arginine / Sucrose uptake, supernatant, [3H] Arginine + [14C] Sucrose + 100µM un-labelled ADMA, 10 mins, Balb/c ♂, 5ml/min, single mice): 0.0158
Kp at 10 min ([2]; pellet, pellet: [14C] Sucrose, mean): 0.00699
Kp at 10 min ([2]; pituitary gland, pituitary gland: [14C] Sucrose, mean): 0.151
Kp at 10 min ([2]; pons, pons: [14C] Sucrose, mean): 0.0326
Kp at 10 min ([2]; supernatant, supernatant: [14C] Sucrose, single mouse): 0.0159
pellet: [14C] Sucrose [3]: 0.001001 and 0.002262 and 0.003661 and 0.002471 and 0.002325
Kp at 10 min ([4]; BALB/c, other: in situ brain perfusion with artificial plasma, with unlabelled ADMA 500 µM, [3H] Arginine and [14C] Sucrose uptake, pellet, + 500µM un-labelled ADMA, mean): 0.00271
Kp at 10 min ([4]; BALB/c, thalamus, other: in situ brain perfusion with artificial plasma, with unlabelled ADMA 500 µM, [3H] Arginine and [14C] Sucrose uptake, thalamus, + 500µM un-labelled ADMA, mean): 0.034
Kp at 10 min ([4]; Balb/c, CSF, other: in situ brain perfusion, with unlabelled ADMA 100 µM, Arginine / Sucrose uptake, CSF, mean, [3H] Arginine + [14C] Sucrose + 100µM un-labelled ADMA, mean): 0.149
Kp at 10 min ([4]; Balb/c, caudate nucleus, other: in situ brain perfusion, with unlabelled ADMA 10 µM, Arginine / Sucrose uptake, caudate nucleus, mean, [3H] Arginine + [14C] Sucrose + 10 uM ADMA, mean): 0.0357
Kp at 10 min ([4]; Balb/c, cerebellum, other: in situ brain perfusion, with unlabelled ADMA 0.5 µM, cerebellum: [14C] Sucrose, + 0.5 uM ADMA, mean): 0.0327
Kp at 10 min ([4]; Balb/c, choroid plexus, other: in situ brain perfusion, with 0.5 µM unlabelled ADMA, choroid plexus: [14C] Sucrose, + 0.5 uM ADMA, mean): 0.162
Kp at 10 min ([4]; Balb/c, frontal cortex, other: in situ brain perfusion, with unlabelled ADMA 3 µM, Arginine / Sucrose uptake, frontal cortex, [3H] Arginine + [14C] Sucrose + 3 uM ADMA, single mice): 0.0326
Kp at 10 min ([4]; Balb/c, hypothalamus, other: in situ brain perfusion, with unlabelled ADMA 3 µM, Arginine / Sucrose uptake, hypothalamus, mean, [3H] Arginine + [14C] Sucrose + 3 uM ADMA, mean): 0.0456
Kp at 10 min ([4]; Balb/c, hypothalamus, other: in situ brain perfusion, with unlabelled ADMA 10 µM, Arginine / Sucrose uptake, hypothalamus, mean, [3H] Arginine + [14C] Sucrose + 10 uM ADMA, mean): 0.074
Kp at 10 min ([4]; Balb/c, hypothalamus, other: in situ brain perfusion, with unlabelled ADMA 100 µM, Arginine / Sucrose uptake, hypothalamus, mean, [3H] Arginine + [14C] Sucrose + 100µM un-labelled ADMA, mean): 0.0349
Kp at 10 min ([4]; Balb/c, pellet (cerebral capillary endothelial cells), other: in situ brain perfusion, with unlabelled ADMA 0.5 µM, pellet: [14C] Sucrose, + 0.5 uM ADMA, mean): 0.00977
Kp at 10 min ([4]; Balb/c, pineal gland, other: in situ brain perfusion, with unlabelled ADMA 10 µM, Arginine / Sucrose uptake, pineal gland, mean, [3H] Arginine + [14C] Sucrose + 10 uM ADMA, mean): 0.504
Kp at 10 min ([4]; Balb/c, pituitary gland, other: in situ brain perfusion, with 0.5 µM unlabelled ADMA, pituitary gland: [14C] Sucrose, + 0.5 uM ADMA, mean): 0.13
Kp at 10 min ([4]; Balb/c, pituitary gland, other: in situ brain perfusion, with unlabelled ADMA 3 µM, Arginine / Sucrose uptake, pituitary gland, mean, [3H] Arginine + [14C] Sucrose + 3 uM ADMA, mean): 0.146
Kp at 10 min ([4]; Balb/c, pons, other: in situ brain perfusion, with unlabelled ADMA 0.5 µM, pons: [14C] Sucrose, + 0.5 uM ADMA, mean): 0.0597
Kp at 10 min ([4]; Balb/c, pons, other: in situ brain perfusion, with unlabelled ADMA 3 µM, Arginine / Sucrose uptake, pons, mean, [3H] Arginine + [14C] Sucrose + 3 uM ADMA, mean): 0.0612
Kp at 10 min ([4]; Balb/c, pons, other: in situ brain perfusion, with unlabelled ADMA 10 µM, Arginine / Sucrose uptake, pons, mean, [3H] Arginine + [14C] Sucrose + 10 uM ADMA, mean): 0.0764
Kp at 10 min ([4]; Balb/c, thalamus, other: in situ brain perfusion, with unlabelled ADMA 10 µM, Arginine / Sucrose uptake, thalamus, mean, [3H] Arginine + [14C] Sucrose + 10 uM ADMA, mean): 0.0352
